Laboratory results as given in publication PMC6412891, “Synthesis and Biological Evaluation of Novel Thiazolyl-Coumarin Derivatives as Potent Histone Deacetylase Inhibitors with Antifibrotic Activity” (Molecules, 2019).

Legend:
[1] = Cytotoxicity assay (Alamar Blue) in cardiac fibroblasts; format: cell-based, rat; settings: Sprague-Dawley, rat, primary neonatal rat cardiac fibroblasts (CFs), CFs treated for 48 h
[2] = system: procollagen type I expression in CFs; test: Procollagen type I expression levels in cardiac fibroblasts, western blot; format: cell-based, rat; settings: for procollagen type I expression levels: 5 μM for 48 h, absence of TGF-β1, vs. control; for procollagen type I expression levels induced by TGF-β1: derivatives 5 μM (TSA 0.1 μM) for 48 h in presence of TGF-β1
Procedure: In CFs collagen type I secretion is a hallmark of cardiac fibrosis development, which is regulated by HDACs. […] For this purpose, a fixed concentration of 5a, 6a, 7a and 8a derivatives in presence/absence of TGF-β1 were studied, and procollagen type I expression levels were measured by using the western blot technique. TSA was used as control and also for comparative purposes. In Figure 5 (A and B), in the upper panel representative photographs of procollagen type I expression level and GAPDH (used as charge control) are shown, whereas in the lower panel the graphic analyses are observed.
For the analysis of the protein expression of histone H4–acetylated (ac–H4) and total H4 histone, a number of 1 × 10^6 of CFs seeded in 60 mm plates was used, which were incubated with the inhibitory compounds at a concentration of 10 μM, in the absence/presence of TGF–β1(5ng/mL) for 4 h. Subsequently, total histones were extracted by the technique of saline precipitation (high salt extraction). Briefly, CFs were scraped from the plates with 1 mL of cold PBS transferring their contents to Eppendorf tubes to be centrifuged for 60 s at 1500 rpm at 4 °C and re–suspended in 400 μL of cold buffer A (10 mM 4-(2-hydroxyethyl)-1-piperazineethanesulfonic acid-KOH (HEPES-KOH) adjusted to pH 7.9, 1.5 mM MgCl2, 10 mM KCl, 0.5 mM dithiothreitol and 0.2 mM phenylmethylsulfonyl fluoride (PMSF). The suspension is left on ice for 10 min and then placed in the vortex for 10 s. The samples were centrifuged for 60 s, subsequently discarding the supernatant fraction. The obtained pellet was re-suspended in 60 μL of cold C buffer (20 mM HEPES-KOH adjusted to pH 7.9, 25% glycerol, 420 mM NaCl, 1.5 mM MgCl2, 0.2 mM EDTA, dithiothreitol 0.5 mM and 0.2 mM PMSF) and placed on ice for 20 min for saline precipitation. Cell debris is removed by centrifugation for 120 s at 1500 rpm at 4 °C and the supernatant fraction, which contains the DNA binding proteins, is stored at minus 20 °C. For the analysis of α–SMA and procollagen type I expression levels, 3×10^5 CFs seeded in 35 mm plates were used, which were incubated together with inhibitor compounds at a 5 μM, in the absence/presence of TGF–β1 (5 ng/mL) for 48 h. To obtain the total proteins, the CFs were washed three times with cold PBS, then scraped and lysed with 50 μL of radio inmuno-precipitation assay (RIPA) lysis buffer (10 mM Tris–HCl pH 7.2, 5 mM EDTA, 150 mM NaCl, Triton X–100 1%, sodium dodecyl sulfate (SDS) 0.1%, deoxycholate 1%, leupeptin 2 μg/mL, aprotinin 10mM, PMSF 1mM and Na3VO4 100μM). The solution was centrifuged for 15 min at 10,000 rpm and at 4 °C. The supernatant fraction containing the total proteins was stored at minus 20 °C. The concentration of proteins obtained was determined by spectrophotometry at 570 nm, using the Bradford method (Bio-Rad, Hercules, CA, USA).
CFs proteins (25 μg), were subjected to 10% sodium dodecyl sulfate-polyacrylamide gel electrophoresis and finally transferred onto a nitrocellulose membrane (Millipore, Billerica, MA, USA). The membrane was washed twice with tris–buffered saline solution containing 0.1% Tween 20 (TBST). After being blocked with TBST containing 5% nonfat milk for 40 min, the membrane was incubated with primary antibodies in TBST/1% nonfat milk at 4 °C overnight. The membrane was washed three times with TBST for a total of 15 min and then incubated with primary antibodies (ac–H4, H4 total, α-SMA, procollagen type I and GAPDH). Then the membrane was incubated with goat anti–rabbit or anti-mouse IgG antibodies conjugated with horseradish (diluted 1:1000) for 1 h at room temperature. Signals were developed with ECL reagents and exposure to photographic film.
Figure 5 CTz non–substituted inhibit procollagen type I expression levels in cardiac fibroblasts. […] (B) CFs were exposed to 5a, 6a, 7a and 8a at 5 μM for 48 h in presence of TGF–β1. Procollagen type I expression levels were measured by western blot. GAPDH was used as control load.

Compound | CC50 at 48 h [1] | procollagen type I expression levels [2] | procollagen type I expression levels induced by TGF-β1 [2]
O=C(CCCCC1CCSS1)Nc1nc(-c2cc3ccccc3oc2=O)cs1 (centres unmarked) [Compound 5a, 5-[1,2]-Dithiolan-3-yl-N-[4-(2-oxo-2H-chromen-3-yl)-thiazol-2-yl]-pentanamide] | 201 ± 20.3 µM | decreased in a statistically significant manner | decreased, close to control levels
O=C(Nc1nc(-c2cc3ccccc3oc2=O)cs1)c1ccc(O)c(O)c1 [Compound 6a] | 140 ± 11.7 µM | decreased in a statistically significant manner | decreased, close to control levels
O=C(O)CCCCC(=O)Nc1nc(-c2cc3ccccc3oc2=O)cs1 [Compound 7a] | 111 ± 4.4 µM | had no effect | 
O=C(CCCCC(=O)Nc1nc(-c2cc3ccccc3oc2=O)cs1)NO [Compound 8a, 5-[4-(2-Oxo-2H-chromen-3-yl)-thiazol-2-yl-carbamoyl]-N-hydroxypentanamide] | 90.5 ± 5.1 µM | decreased in a statistically significant manner | decreased, close to control levels
